According to patent publication US10577363B2, “Substituted piperidine compounds” (EPIZYME, INC., priority 2014, dated 2020):

Experiments:
[1] = biological target: T1, SMYD3 (Homo sapiens (Human), UniProt Q9H7B4); test: SMYD3 cell assay (Trimethyl-MEKK2 In-Cell Western in 293T/17 cells); type: cell-based; details: average of n = 1 to n = 50; read-out: SMYD3 Cell IC50
In short: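 In-Cell Western readout: methanol-fixed cells stained for trimethyl-MEKK2 and flag tag, ratio per well normalized to DMSO and background controls.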

[2] = biological target: T1, SMYD3; test: SMYD3 biochemical assay (SPA, 3H-SAM methylation of MEKK2 protein substrate); details: average of n = 1 to n = 50; read-out: SMYD3 Biochem IC50
In short: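 Methylation of N-terminally GST-tagged MEKK2 by untagged full-length human SMYD3, using 3H-SAM, in pH 8.0 Tris buffer with TCEP, BSG and Tween 20; enzyme and compound sat 30 min at room temperature before substrate addition. Stopped with 100 uM (final) cold SAM; incorporation read by scintillation proximity as dpm/cpm.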

T1 sequence (Q9H7B4 whole entry): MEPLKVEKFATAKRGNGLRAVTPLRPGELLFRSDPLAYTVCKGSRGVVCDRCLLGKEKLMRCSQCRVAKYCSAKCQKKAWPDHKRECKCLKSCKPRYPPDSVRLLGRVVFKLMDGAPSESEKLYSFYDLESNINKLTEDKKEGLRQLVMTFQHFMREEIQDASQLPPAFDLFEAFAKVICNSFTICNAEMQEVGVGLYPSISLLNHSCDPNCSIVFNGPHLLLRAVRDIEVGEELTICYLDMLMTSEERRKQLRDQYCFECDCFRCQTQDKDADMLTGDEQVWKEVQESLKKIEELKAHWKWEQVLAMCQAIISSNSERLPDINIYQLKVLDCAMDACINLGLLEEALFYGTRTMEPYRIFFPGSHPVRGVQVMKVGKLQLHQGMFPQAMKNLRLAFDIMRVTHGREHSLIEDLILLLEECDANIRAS

SMILES	IC50 [1]	IC50 [2]
CC1CN(S(=O)(=O)N2[C@@H]3CC[C@H]2C[C@@H](NC(=O)c2cc(C4CC4)on2)C3)CC(C)N1 (stereo partly drawn) [compound 692, 5-cyclopropyl-N-((1R,3r,5S)-8-((3,5-dimethylpiperazin-1-yl)sulfonyl)-8-azabicyclo[3.2.1]octan-3-yl)isoxazole-3-carboxamide]	637 nM	148 nM
C[C@H]1CN(S(=O)(=O)CC2CCN(CCN3CCCCC3)CC2)CC[C@H]1NC(=O)c1cc(C2CC2)on1 [compound 693, 5-cyclopropyl-N-((3S,4R)-3-methyl-1-(((1-(2-(piperidin-1-yl)ethyl)piperidin-4-yl)methyl)sulfonyl)piperidin-4-yl)isoxazole-3-carboxamide]	4040 nM	156 nM
C[C@H]1CN(S(=O)(=O)CCN)[C@@H](C)C[C@H]1NC(=O)c1cc(C2CC2)on1 [compound 694, N-((2S,4R,5S)-1-((2-aminoethyl)sulfonyl)-2,5-dimethylpiperidin-4-yl)-5-cyclopropylisoxazole-3-carboxamide]	952 nM	157 nM
C[C@H]1C[C@@H](NC(=O)c2cc(C3CC3)on2)CCN1S(=O)(=O)C(CCN)c1ccccc1 (stereo partly drawn) [compound 695, N-((2S,4S)-1-((3-amino-1-phenylpropyl)sulfonyl)-2-methylpiperidin-4-yl)-5-cyclopropylisoxazole-3-carboxamide]	1830 nM	169 nM
C[C@H]1CN(S(=O)(=O)NC2CCN(Cc3ccccc3)CC2)CC[C@H]1NC(=O)c1cc(C2CC2)on1 [compound 696, N-((3S,4R)-1-(N-(1-benzylpiperidin-4-yl)sulfamoyl)-3-methylpiperidin-4-yl)-5-cyclopropylisoxazole-3-carboxamide]	1550 nM	170 nM
C[C@H]1C[C@@H](NC(=O)c2cc(C3CC3)on2)CCN1S(=O)(=O)CCCNc1ccccc1 [compound 697, 5-cyclopropyl-N-((2S,4S)-2-methyl-1-((3-(phenylamino)propyl)sulfonyl)piperidin-4-yl)isoxazole-3-carboxamide]	1560 nM	178 nM
C[C@H]1CN(S(=O)(=O)CC2CCN(CCC(F)(F)F)CC2)CC[C@H]1NC(=O)c1cc(C2CC2)on1 [compound 698, 5-cyclopropyl-N-((3S,4R)-3-methyl-1-(((1-(3,3,3-trifluoropropyl)piperidin-4-yl)methyl)sulfonyl)piperidin-4-yl)isoxazole-3-carboxamide]	746 nM	179 nM
CC1CN(S(=O)(=O)N2CC[C@H](NC(=O)c3cc(C4CC4)on3)C[C@@H]2C)CCN1C (stereo partly drawn) [compound 699, 5-cyclopropyl-N-((2S,4S)-1-((3,4-dimethylpiperazin-1-yl)sulfonyl)-2-methylpiperidin-4-yl)isoxazole-3-carboxamide]	658 nM	193 nM
O=C(N[C@H]1CCN(S(=O)(=O)CC2CCCNC2)[C@@H](Cc2ccccc2)C1)c1cc(C2CC2)on1 (stereo partly drawn) [compound 700, N-((2S,4S)-2-benzyl-1-((piperidin-3-ylmethyl)sulfonyl)piperidin-4-yl)-5-cyclopropylisoxazole-3-carboxamide]	2110 nM	194 nM
CC1CN(S(=O)(=O)N2CC[C@H](NC(=O)c3cc(C4CC4)on3)C[C@@H]2C)CC(C)N1 (stereo partly drawn) [compound 701, 5-cyclopropyl-N-((2S,4S)-1-((3,5-dimethylpiperazin-1-yl)sulfonyl)-2-methylpiperidin-4-yl)isoxazole-3-carboxamide]	1840 nM	210 nM
CC1CN(S(=O)(=O)N2[C@@H]3CC[C@H]2C[C@@H](NC(=O)c2cc(C4CC4)on2)C3)CC(C)N1C (stereo partly drawn) [compound 702, 5-cyclopropyl-N-((1R,3r,5S)-8-((3,4,5-trimethylpiperazin-1-yl)sulfonyl)-8-azabicyclo[3.2.1]octan-3-yl)isoxazole-3-carboxamide]	1240 nM	215 nM
